Results published in patent US20230348376A1 (TEIJIN PHARMA LIMITED, priority 2020, published 2023).

How the values were obtained:
[1] = test system: mouse neural stem cells (NSCs); assay: Promoting activity in oligodendrocyte differentiation of mouse neural stem cell (GalC immunostaining); format: cell-based; conditions: for Gal/C positive ratio Average value: day 10, N=5
Experimental: To NSC basal medium (100 mL) included in this product, B27 (1 mL), Penicillin-Streptomycin (1 mL), Glutamine (1 mL), bFGF (20 μL), EGF (10 μL), and Heparin (100 μL) were added to prepare the growth medium. Mouse neural stem cells were reconstituted in a T-25 flask using the growth medium and proliferated as a neurosphere by suspension culture. The cells were expanded by passaging at a split ratio=1:2 in a CO2 incubator (5% CO2, 37° C., wet) to obtain the required number of cells. ACCUTASE (Innovative Cell Technologies, Cat. No. AT104) was used as the passage reagent.
The differentiation medium containing test substance was prepared to a target final concentration by diluting a solution of 20 mM compound in DMSO to 10-fold with DMSO and then to 2×10^5-fold with the differentiation medium. Additive-free differentiation medium for control was prepared by diluting DMSO to 2×10^5-fold with the differentiation medium to be a final concentration of 5×10^−5%.
The mouse neural stem cells were seeded on a poly-L-Lysine/Laminin-coated 96-well plate at a cell density of 2.0×10^4 cells/100 μL/well using the differentiation medium and the culture was started in a CO2 incubator (5% CO2, 37° C., wet). The next day, the medium was replaced with the differentiation medium containing a test substance or an additive-free differentiation medium for control, and evaluation of the test substance (N=5) was started (day 0). The medium was replaced every other day by 60% of the medium in the wells. On day 10, cells were fixed and immunostained.
After the medium was removed, the cells were fixed by adding 100 μL of 4% paraformaldehyde-PBS and being incubated at room temperature for 30 minutes. Next, the cells were washed 3 times with PBS, 100 μL of 5% Goat Serum/PBS was added thereto, and the mixture was incubated at room temperature for 30 minutes to perform blocking and membrane permeation treatment. […] After the cells were washed 3 times with PBS, 100 μL of PBS was added to the wells, and the wells were photographed with fluorescence microscopy. Images were taken under the same condition in all wells, and blue fluorescence and green fluorescence were simultaneously photographed.
Using the hybrid cell counting software provided in the fluorescence microscope (Keyence, BZ-X700), co-localized spots of green fluorescence and blue fluorescence were extracted, and the number of these spots was defined as the total number of GalC-positive cells, and the oligodendrocyte differentiation ratio was calculated by the following calculation:the total number of GalC-positive cells/the number of nuclei (number of blue fluorescence spots). A significant difference test was performed by t-test between the additive-free group and the sample-added group.

human VDR = target: T1, human VDR (Homo sapiens, UniProt P11473); assay: Evaluation of VDR transcription activity in human osteoblasts (HOS cells), luciferase reporter; conditions: Activity (EC50, VDR transcription activity), HOS cells transfected with human VDR, human RXRα and DR3 luciferase reporter; 21 hours
T1 sequence (P11473 1-427): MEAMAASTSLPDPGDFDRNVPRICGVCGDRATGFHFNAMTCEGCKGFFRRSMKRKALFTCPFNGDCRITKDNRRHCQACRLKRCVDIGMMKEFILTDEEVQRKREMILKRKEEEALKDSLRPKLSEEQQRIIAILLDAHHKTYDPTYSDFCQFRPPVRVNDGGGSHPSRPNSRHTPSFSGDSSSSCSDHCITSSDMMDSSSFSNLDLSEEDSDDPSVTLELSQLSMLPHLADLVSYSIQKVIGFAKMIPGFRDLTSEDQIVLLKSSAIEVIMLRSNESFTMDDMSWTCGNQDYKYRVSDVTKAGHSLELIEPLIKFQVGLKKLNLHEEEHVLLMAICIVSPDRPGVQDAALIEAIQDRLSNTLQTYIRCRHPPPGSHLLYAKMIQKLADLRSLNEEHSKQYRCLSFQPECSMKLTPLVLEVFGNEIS
T1 sequence (P19793 1-462 partner): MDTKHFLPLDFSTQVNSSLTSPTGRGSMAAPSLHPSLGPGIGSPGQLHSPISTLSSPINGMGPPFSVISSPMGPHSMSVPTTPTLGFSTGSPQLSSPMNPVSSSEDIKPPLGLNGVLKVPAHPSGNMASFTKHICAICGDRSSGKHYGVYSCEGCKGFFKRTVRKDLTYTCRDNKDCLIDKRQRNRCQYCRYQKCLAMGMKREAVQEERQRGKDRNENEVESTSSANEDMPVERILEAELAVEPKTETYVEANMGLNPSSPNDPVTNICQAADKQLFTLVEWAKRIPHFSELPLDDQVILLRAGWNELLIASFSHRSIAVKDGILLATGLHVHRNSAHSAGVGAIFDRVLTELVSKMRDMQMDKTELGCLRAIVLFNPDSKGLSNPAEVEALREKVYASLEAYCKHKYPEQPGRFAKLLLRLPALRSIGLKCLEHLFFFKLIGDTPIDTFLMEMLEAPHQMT

[2] = test system: rat oligodendrocyte progenitor cells; assay: Promotive activity of rat oligodendrocyte progenitor cell differentiation-1 (MBP gene expression, mRNA); format: cell-based; conditions: 4 days, MBP/β actin mRNA; for activation at 1 µM: Rattus norvegicus, Oligodendrocyte progenitor cell, 96 h, read-out: promotive activity at T3 base (MBP gene expression; DMSO 0%, T3 100%)
How it was run: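 Primary OPCs from 1-day-old SD rat forebrain, isolated by shaking off mixed glial cultures and seeded at 2×10^3 cells/well in B27/CNTF (10 ng/mL) differentiation medium with compound. MBP mRNA measured by one-step TaqMan real-time PCR and expressed as MBP/β-actin ratio.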

[3] = Evaluation of brain penetration in mice (blood and brain concentration at brain Cmax); format: in vivo, mouse; conditions: 1 mg/kg single oral dose, C57BL/6J mice; for Concentration in blood (mean ± SD) at brain Cmax / Concentration in brain (mean ± SD) at brain Cmax: n=3; for Kp: male, C57BL/6J, mouse, brain/plasma, po, 1 mg/kg, read-out: Concentration in brain/in blood ratio at brain Cmax
How it was run: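 Male C57BL/6J mice (8 weeks, n=3) dosed orally once at 1 […] mg/kg; plasma and brain collected at 0.25, 0.5, 1, 2, 4 and 8 h. Compound extracted with acetonitrile from brain homogenate and plasma, quantified by LC/MS/MS.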

[4] = test system: rat oligodendrocyte progenitor cells; assay: Promotive activity of rat oligodendrocyte progenitor cell differentiation-2 (immunostaining of MBP); format: cell-based; conditions: vitamin D derivative 2 μM, T3 30 nM, 4 days
How it was run: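 Vitamin D derivatives scored as symbols for promoting differentiation, read out by MBP immunostaining. OPCs taken from supernatant after about 22 h shaking (37 °C, 200 rpm) in separation medium.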

EC50 (human VDR) [nM] | Concentration in blood (mean ± SD) at brain Cmax [3] [nM] | Concentration in brain (mean ± SD) at brain Cmax [3] [pmol/g] | Kp [3] | SMILES | Gal/C positive ratio Average value ([1]; 10 nM) | Gal/C positive ratio Average value ([1]; 100 nM) | Gal/C positive ratio Average value ([1]; 1000 nM) | promoting activity in a Gal/C-positive oligodendrocyte differentiation ([1]; 1000 nM) [times] | promotive activity at T3 base (MBP gene expression; DMSO 0%, T3 100%) ([2]; 1 μM) [%] | activation at 1 µM [2] [%] | Mean (number of MBP-positive cells/number of Hoechst33342-positive cells) ([4]; Test 1) | Mean (number of MBP-positive cells/number of Hoechst33342-positive cells) ([4]; Test 2)
10 to 100 |  |  |  | C=C1/C(=C\C=C2/CCC[C@]3(C)[C@@H]([C@H](C)CCN4CCOC[C@@H]4C)CC[C@@H]23)C[C@@H](O)CC1O (stereo in doubt) [Compound D045, (1R,3R,Z)-5-(2-((1R,3aS,7aR,E)-7a-methyl-1-((R)-4-((S)-3-methylmorpholino)butan-2-yl)octahydro-4H-inden-4-ylidene)ethylidene)-4-methylenecyclohexane-1,3-diol] | 11.46 | 12.01 | 14.93 |  |  |  |  | 
10 to 100 |  |  |  | C[C@H](CCN1CCOC[C@H]1C)[C@H]1CC[C@H]2/C(=C/C=C3C[C@@H](O)C[C@H](O)C3)CCC[C@]12C [Compound D042, (1R,3R)-5-(2-((1R,3aS,7aR,E)-7a-methyl-1-((R)-4-((R)-3-methylmorpholino)butan-2-yl)octahydro-4H-inden-4-ylidene)ethylidene)cyclohexane-1,3-diol] | 12.25 | 14.27 | 15.80 |  |  |  |  | 

The next lines start with the compound.

SMILES | EC50 (human VDR) [nM] | Concentration in blood (mean ± SD) at brain Cmax [3] [nM] | Concentration in brain (mean ± SD) at brain Cmax [3] [pmol/g] | Kp [3] | Gal/C positive ratio Average value ([1]; 10 nM) | Gal/C positive ratio Average value ([1]; 100 nM) | Gal/C positive ratio Average value ([1]; 1000 nM) | promoting activity in a Gal/C-positive oligodendrocyte differentiation ([1]; 1000 nM) [times] | promotive activity at T3 base (MBP gene expression; DMSO 0%, T3 100%) ([2]; 1 μM) [%] | activation at 1 µM [2] [%] | Mean (number of MBP-positive cells/number of Hoechst33342-positive cells) ([4]; Test 1) | Mean (number of MBP-positive cells/number of Hoechst33342-positive cells) ([4]; Test 2)
C=C1/C(=C\C=C2/CCC[C@]3(C)[C@@H]([C@H](C)CCCC(C)(C)O)CC[C@@H]23)C[C@@H](O)C[C@@H]1O [1α,25-dihydroxyvitamin D3, reference compound] |  |  |  |  |  |  |  | 1.5 | 0 |  |  | 
C[C@H](CN1CC[C@@H](C(F)F)C1)[C@H]1CC[C@H]2/C(=C/C=C3C[C@@H](O)C[C@H](O)C3)CCC[C@]12C [Compound B026, (1R,3R)-5-(2-((1R,3aS,7aR,E)-1-((S)-1-((R)-3-(difluoromethyl)pyrrolidin-1-yl)propan-2-yl)-7a-methyloctahydro-4H-inden-4-ylidene)ethylidene)cyclohexane-1,3-diol] | 10 to 100 | 218 ± 31 | 384 ± 40 | 1.76 |  |  |  |  |  | ≥ 20 | 0.38 | 
C=C1[C@H](O)CC(=C/C=C2\CCC[C@]3(C)[C@@H]([C@H](C)CN4CC[C@@H](C(F)F)C4)CC[C@@H]23)C[C@H]1O [Compound B027, (1R,3R)-5-(2-((1R,3aS,7aR,E)-1-((S)-1-((R)-3-(difluoromethyl)pyrrolidin-1-yl)propan-2-yl)-7a-methyloctahydro-4H-inden-4-ylidene)ethylidene)-2-methylenecyclohexane-1,3-diol] | 1 to 10 | 126 ± 14 | 414 ± 40 | 3.29 |  |  |  |  |  | ≥ 20 | 0.29 | 
C=C1[C@H](O)CC(=C/C=C2\CCC[C@]3(C)[C@@H]([C@H](C)CN4CC[C@H](CC(F)F)C4)CC[C@@H]23)C[C@H]1O [Compound B040, (1R,3R)-5-(2-((1R,3aS,7aR,E)-1-((S)-1-((R)-3-(2,2-difluoroethyl)pyrrolidin-1-yl)propan-2-yl)-7a-methyloctahydro-4H-inden-4-ylidene)ethylidene)-2-methylenecyclohexane-1,3-diol] | 1 to 10 | 70 ± 10 | 153 ± 35 | 2.18 |  |  |  |  |  | ≥ 20 | 0.59 | 
C[C@H](CN1CC[C@H](OC(F)F)C1)[C@H]1CC[C@H]2/C(=C/C=C3C[C@@H](O)C[C@H](O)C3)CCC[C@]12C [Compound B051, (1R,3R)-5-(2-((1R,3aS,7aR,E)-1-((S)-1-((S)-3-(difluoromethoxy)pyrrolidin-1-yl)propan-2-yl)-7a-methyloctahydro-4H-inden-4-ylidene)ethylidene)cyclohexane-1,3-diol] | 10 to 100 | 304 ± 35 | 644 ± 92 | 2.12 |  |  |  |  |  | ≥ 20 |  | 0.45
C=C1[C@H](O)CC(=C/C=C2\CCC[C@]3(C)[C@@H]([C@H](C)CN4CC[C@H](OCC(F)F)C4)CC[C@@H]23)C[C@H]1O [Compound B055, (1R,3R)-5-(2-((1R,3aS,7aR,E)-1-((S)-1-((S)-3-(2,2-difluoroethoxy)pyrrolidin-1-yl)propan-2-yl)-7a-methyloctahydro-4H-inden-4-ylidene)ethylidene)-2-methylenecyclohexane-1,3-diol] | 1 to 10 | 309 ± 17 | 327 ± 28 | 1.06 |  |  |  |  |  | ≥ 20 |  | 0.56
C[C@H](CN1CCOCC1)[C@H]1CC[C@H]2/C(=C/C=C3C[C@@H](O)C[C@H](O)C3)CCC[C@]12C [Compound D004, (1R,3R)-5-(2-((1R,3aS,7aR,E)-7a-methyl-1-((S)-1-morpholinopropan-2-yl)-octahydro-4H-inden-4-ylidene)ethylidene)cyclohexane-1,3-diol] |  |  |  |  | 12.61 | 15.55 | 16.76 |  |  |  |  | 
C[C@H](CCN1CCOC[C@@H]1C)[C@H]1CC[C@H]2/C(=C/C=C3C[C@@H](O)C[C@H](O)C3)CCC[C@]12C [Compound D043, (1R,3R)-5-(2-((1R,3aS,7aR,E)-7a-methyl-1-((R)-4-((S)-3-methylmorpholino)butan-2-yl)octahydro-4H-inden-4-ylidene)ethylidene)cyclohexane-1,3-diol] |  |  |  |  | 12.81 | 12.27 | 16.09 |  |  | ≥ 20 |  | 
